# Measurements: ChEMBL document CHEMBL1130520, “Solid phase synthesis of C-terminal carbohydrate modified enkephalins” (Bioorg Med Chem Lett, 1997)
# pIC50: −log10 of the molar value. Starred links: 1 amine or outer side, 2 acyl side, 3 side chain; linkers in the order of their positions; H or OH if unused. Non-standard residues stand in square brackets, D forms with d. Residues, ends and D or L forms follow the SMILES beside them. *: point of attachment. X1 = NC(=O)[C@@H]1O[C@@H](N*)[C@@H](O)[C@@H](O)[C@@H]1O; X3 = O=C(O)[C@@H]1O[C@@H](N*)[C@@H](O)[C@@H](O)[C@@H]1O; X2 = O=C(O)C1OC(NC(=O)C2OC(N*)C(O)C(O)C2O)C(O)C(O)C1O; hMet = CSCCC[C@H](N)C(=O)O; CO = O=C([*:1])[*:2]
# Experiments:
# Format in all cases: functional
# Cavia porcellus [1] = organism: Cavia porcellus; experiment: Compound was tested in vitro for inhibiting electrically stimulated muscle contractions in guinea pig ileum (GPI)
# Mus musculus [2] = organism: Mus musculus; experiment: Compound was tested in vitro for inhibiting electrically stimulated muscle contractions in mouse vas deferens (MVD); conditions: Muscle tissue
# Mus musculus [3] = organism: Mus musculus; experiment: Compound was tested for relative potency with respect to the compound Enkephalinamide in MVD assay
# Cavia porcellus [4] = organism: Cavia porcellus; experiment: Compound was tested for relative potency with respect to the compound Enkephalinamide in GPI assay
pIC50 (Cavia porcellus [1]),pIC50 (Mus musculus [2]),Compound,Relative potency (Mus musculus [3]),Relative potency (Cavia porcellus [4])
5.41,6.96,CC(C)C[C@H](NC(=O)N[C@@H]1O[C@@H](C(N)=O)[C@@H](O)[C@H](O)[C@@H]1O)C(=O)N[C@@H](Cc1ccccc1)C(=O)NCC(=O)NCC(=O)N[C@@H](Cc1ccc(O)cc1)C(=O)O ({X1-CO}-LFGGY-OH),0.51,0.14
5.98,6.26,CC(C)C[C@H](NC(=O)NC1OC(C(=O)NC2OC(C(=O)O)C(O)C(O)C2O)C(O)C(O)C1O)C(=O)N[C@@H](Cc1ccccc1)C(=O)NCC(=O)NCC(=O)N[C@@H](Cc1ccc(O)cc1)C(=O)O (stereo not given in full) ({X2-CO}-LFGGY-OH),2.56,0.52
6.70,8.10,CC(C)C[C@H](NC(=O)N[C@@H]1O[C@@H](C(=O)O)[C@@H](O)[C@H](O)[C@@H]1O)C(=O)N[C@@H](Cc1ccccc1)C(=O)NCC(=O)NCC(=O)N[C@@H](Cc1ccc(O)cc1)C(=O)O ({X3-CO}-LFGGY-OH),35.39,2.74
6.96,7.15,CSCCC[C@H](NC(=O)N[C@@H]1O[C@@H](C(=O)O)[C@@H](O)[C@H](O)[C@@H]1O)C(=O)N[C@@H](Cc1ccccc1)C(=O)NCC(=O)NCC(=O)N[C@@H](Cc1ccc(O)cc1)C(=O)O ({X3-CO}-[hMet]FGGY-OH),3.8,4.54

Compound,pIC50 (Cavia porcellus [1]),pIC50 (Mus musculus [2]),Relative potency (Mus musculus [3]),Relative potency (Cavia porcellus [4])
"CC(C)C[C@H](NC(=O)[C@H](Cc1ccccc1)NC(=O)CNC(=O)CNC(=O)[C@@H](N)Cc1ccc(O)cc1)C(N)=O (single isomer, unassigned) [[LEU5]ENKEPHALIN]",6.27,6.55,1,1
